# Ends that are not written are not given here.
# Assays:
# [1] = target: hFlt-1 (Homo sapiens, UniProt P17948); assay: Binding of alanine-substituted and truncated phage clones to immobilized Flt-1 receptor by ELISA; settings: relative to clone V5.2
# [2] = target: VEGF receptor-1 (human Flt-1/Fc chimera) (Homo sapiens, UniProt P17948); assay: Phage binding assay to immobilized VEGF receptor-1 (anti-M13 ELISA); settings: 10^9 virions/200 μl, overnight at 4 degree
# [3] = target: Flt-1 (Homo sapiens, UniProt P17948); settings: cited from earlier work
# Sequence of Flt-1 (P17948 27-1338, species assumed): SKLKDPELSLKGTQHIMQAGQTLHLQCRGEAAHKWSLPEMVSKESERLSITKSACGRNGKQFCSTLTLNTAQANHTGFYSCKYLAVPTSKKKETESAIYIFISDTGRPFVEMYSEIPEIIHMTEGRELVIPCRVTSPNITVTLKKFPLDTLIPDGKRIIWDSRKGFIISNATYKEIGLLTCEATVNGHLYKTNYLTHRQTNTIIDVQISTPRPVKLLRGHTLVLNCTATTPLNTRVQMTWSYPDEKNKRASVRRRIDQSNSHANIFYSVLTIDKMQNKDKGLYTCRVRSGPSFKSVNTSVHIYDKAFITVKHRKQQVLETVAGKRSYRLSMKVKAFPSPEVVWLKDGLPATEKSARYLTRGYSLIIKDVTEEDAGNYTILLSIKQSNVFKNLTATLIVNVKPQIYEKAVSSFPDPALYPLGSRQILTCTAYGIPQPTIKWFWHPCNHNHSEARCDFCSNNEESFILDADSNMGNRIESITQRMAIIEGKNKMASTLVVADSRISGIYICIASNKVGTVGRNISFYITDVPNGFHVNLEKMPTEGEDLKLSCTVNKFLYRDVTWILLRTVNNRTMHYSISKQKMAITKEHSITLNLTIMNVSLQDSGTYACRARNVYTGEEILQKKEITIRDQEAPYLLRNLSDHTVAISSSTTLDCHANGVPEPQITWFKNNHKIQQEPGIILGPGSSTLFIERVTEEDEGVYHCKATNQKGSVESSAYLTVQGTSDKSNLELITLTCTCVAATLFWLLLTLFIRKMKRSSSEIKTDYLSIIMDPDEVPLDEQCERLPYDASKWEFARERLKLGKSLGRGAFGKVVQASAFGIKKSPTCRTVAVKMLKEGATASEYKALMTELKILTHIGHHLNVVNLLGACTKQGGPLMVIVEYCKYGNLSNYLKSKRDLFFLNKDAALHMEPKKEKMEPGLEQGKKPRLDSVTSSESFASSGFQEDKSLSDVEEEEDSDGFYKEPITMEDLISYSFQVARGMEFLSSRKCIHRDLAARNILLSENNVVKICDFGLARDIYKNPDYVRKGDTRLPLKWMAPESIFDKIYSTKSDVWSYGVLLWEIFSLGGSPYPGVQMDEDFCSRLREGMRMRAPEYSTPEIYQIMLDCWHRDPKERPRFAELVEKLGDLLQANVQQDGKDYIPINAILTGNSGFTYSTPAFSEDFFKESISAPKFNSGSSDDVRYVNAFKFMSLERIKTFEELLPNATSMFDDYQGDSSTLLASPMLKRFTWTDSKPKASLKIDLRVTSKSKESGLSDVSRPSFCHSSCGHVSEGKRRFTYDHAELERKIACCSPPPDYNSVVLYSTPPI
# [4] = tested on: endothelial cells; settings: VEGF binding to KDR; cited from earlier work
# Sequence of hFlt-1 (P17948 27-687 isoform P17948-2 limits assumed): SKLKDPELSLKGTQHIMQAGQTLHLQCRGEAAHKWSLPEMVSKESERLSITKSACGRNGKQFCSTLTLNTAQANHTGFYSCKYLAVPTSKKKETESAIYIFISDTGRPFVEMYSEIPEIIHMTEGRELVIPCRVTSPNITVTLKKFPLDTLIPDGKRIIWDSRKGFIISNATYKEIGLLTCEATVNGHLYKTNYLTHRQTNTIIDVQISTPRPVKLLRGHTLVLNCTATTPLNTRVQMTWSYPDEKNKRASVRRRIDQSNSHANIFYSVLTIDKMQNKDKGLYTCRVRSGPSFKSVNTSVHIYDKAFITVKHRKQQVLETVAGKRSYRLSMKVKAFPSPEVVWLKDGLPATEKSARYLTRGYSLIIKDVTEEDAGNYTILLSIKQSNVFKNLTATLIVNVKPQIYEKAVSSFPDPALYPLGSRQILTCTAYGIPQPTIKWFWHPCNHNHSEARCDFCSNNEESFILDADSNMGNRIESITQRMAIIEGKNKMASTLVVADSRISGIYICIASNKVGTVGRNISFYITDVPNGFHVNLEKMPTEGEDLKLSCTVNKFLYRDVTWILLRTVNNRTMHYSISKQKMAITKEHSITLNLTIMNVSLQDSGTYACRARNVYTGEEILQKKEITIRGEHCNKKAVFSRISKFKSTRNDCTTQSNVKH
# Sequence of VEGF receptor-1 (human Flt-1/Fc chimera) (P17948 27-687 isoform P17948-2 limits assumed): as above
Substance,Binding to hFlt-1 in % [1] [%],"ABSORBANCE, A 405 [2]",also measured
EIEWYSW (displayed on phage; Chemical peptide synthesis and biosynthesis utilizing E. coli) [V5.2/1],6.55 ± 15.81,,
FVGGWLVPEDERLYPE [V40],,0.025 ± 0.014,
NGYAIAWYSWVTHGMY (displayed on phage; Chemical peptide synthesis and biosynthesis utilizing E. coli) [E46/A],44.46 ± 7.05,,
NGYEIEAYSAVTHGMY (displayed on phage; Chemical peptide synthesis and biosynthesis utilizing E. coli) [W710/A],62.15 ± 22.16,,
PEPEVRLSPPGHIQSL [V5.10],,0.039 ± 0.013,
VEGF,,,Kd [3]: 0.01 to 0.02 nM; ED50 [4]: 0.1 to 1 ng/mL
